Tests used:
Experiment in all cases: combination Emax (second highest fraction inhibited in the dose matrix, 72 h); higher = more inhibition; extreme values may be limits of the assay
[1] = tested on: SK-MG-1 (Low Grade Glioma)
How it was run: (§1)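 Cell lines in DMEM/F12 or RPMI with 10% FBS were plated in 1536-well plates, held 24 hours at 37°C, 5% CO2, then given two-drug dose matrices for 72 hours (DMSO typically 0.2%). Viability was read by CellTiter-Glo 2.0 luminescence and scaled as inhibition from 0 (vehicle wells) to 1 (blank wells). Combination Emax is the second-highest inhibition in the matrix; Bliss excess is observed combination effect minus expected EA + EB − EA·EB, EA and EB being single-agent effects.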

[2] = tested on: A549 (Lung Adenocarcinoma)
How it was run: as §1

[3] = tested on: NCI-H1666 (Lung Adenocarcinoma)
How it was run: as §1

[4] = tested on: NCI-H2141 (Small Cell Lung Carcinoma)
How it was run: as §1

NCI-H2591 (Mesothelioma) = tested on: NCI-H2591 (Mesothelioma)
How it was run: as §1

[5] = tested on: ONS-76 (Other Solid Carcinomas)
How it was run: as §1

[6] = tested on: BICR22 (Oral Cavity Carcinoma)
How it was run: as §1

U-2-OS (Osteosarcoma) = tested on: U-2-OS (Osteosarcoma)
How it was run: as §1

[7] = tested on: ECC10 (Gastric Carcinoma)
How it was run: as §1

NY (Osteosarcoma) = tested on: NY (Osteosarcoma)
How it was run: as §1

GI-ME-N (Neuroblastoma) = tested on: GI-ME-N (Neuroblastoma)
How it was run: as §1

[8] = tested on: OS-RC-2 (Kidney Carcinoma)
How it was run: as §1

[9] = tested on: SK-MES-1 (Squamous Cell Lung Carcinoma)
How it was run: as §1

8-MG-BA (Glioblastoma) = tested on: 8-MG-BA (Glioblastoma)
How it was run: as §1

[10] = tested on: TT2609-C02 (Thyroid Gland Carcinoma)
How it was run: as §1

[11] = tested on: JSC-1 (B-Cell Non-Hodgkin's Lymphoma)
How it was run: as §1

ARH-77 (Non-Cancerous) = tested on: ARH-77 (Non-Cancerous)
How it was run: as §1

[12] = tested on: NCI-H1650 (Lung Adenocarcinoma)
How it was run: as §1

[13] = tested on: PANC-10-05 (Pancreatic Carcinoma)
How it was run: as §1

[14] = tested on: NCI-H64 (Small Cell Lung Carcinoma)
How it was run: as §1

| Structure (SMILES) | combination Emax [1] | combination Emax [2] | combination Emax [3] | combination Emax [4] | combination Emax (NCI-H2591 (Mesothelioma)) | combination Emax [5] | combination Emax [6] | combination Emax (U-2-OS (Osteosarcoma)) | combination Emax [7] | combination Emax (NY (Osteosarcoma)) | combination Emax (GI-ME-N (Neuroblastoma)) | combination Emax [8] | combination Emax [9] | combination Emax (8-MG-BA (Glioblastoma)) | combination Emax [10] | combination Emax [11] | combination Emax (ARH-77 (Non-Cancerous)) | combination Emax [12] | combination Emax [13] | combination Emax [14] |
| --- | --- | --- | --- | --- | --- | --- | --- | --- | --- | --- | --- | --- | --- | --- | --- | --- | --- | --- | --- | --- |
| CN(CCO)CC[C@H](CSc1ccccc1)Nc1ccc(S(=O)(=O)NC(=O)c2ccc(N3CCC([C@@H](O)c4ccccc4-c4ccc(Cl)cc4)CC3)cc2)cc1S(=O)(=O)C(F)(F)F [AZD4320] + C=CCn1c(=O)c2cnc(Nc3ccc(N4CCN(C)CC4)cc3)nc2n1-c1cccc(C(C)(C)O)n1 [AZD1775] (first compound max 1 µM, partner max 1 µM) | 0.91 | 0.384 | 0.302 | 1 | 0.159 | 0.726 | 0.882 | 0.782 | 1 | 0.793 | 0.334 | 0.337 | 0.797 | 0.785 | 0.722 | 0.904 | 1 | 0.403 | 0.481 | 1 |
| CC1(C)CCC(CN2CCN(c3ccc(C(=O)NS(=O)(=O)c4ccc(NCC5CCOCC5)c([N+](=O)[O-])c4)c(Oc4cnc5[nH]ccc5c4)c3)CC2)=C(c2ccc(Cl)cc2)C1 [Venetoclax] + C=CCn1c(=O)c2cnc(Nc3ccc(N4CCN(C)CC4)cc3)nc2n1-c1cccc(C(C)(C)O)n1 [AZD1775] (first compound max 1 µM, partner max 1 µM) | 0.625 | 0.406 | 0.343 | 0.792 | 0.279 | 0.781 | 0.782 | 0.679 | 0.989 | 0.741 | 0.272 | 0.326 | 0.565 | 0.755 | 0.639 | 0.888 | 0.997 | 0.433 | 0.486 | 0.942 |
| Cc1c2c(nn1C)CSCc1cc(n(C)n1)CSc1cc(c3ccccc3c1)OCCCc1c(C(=O)O)n(C)c3c-2c(Cl)ccc13 [AZD5991] + C[C@@H]1COCCN1C2=NC(=NC(=C2)C3(CC3)[S@](=N)(=O)C)C4=C5C=CNC5=NC=C4 [AZD6738] (first compound max 1 µM, 7x7, partner max 10 µM) | 0.566 | 0.726 | 0.322 | 0.628 | 0.392 | 0.821 | 0.846 | 0.599 | 0.766 | 0.805 | 0.431 | 0.363 | 0.785 | 0.961 | 0.392 | 1 | 0.976 | 0.516 | 0.488 | 0.905 |
| COc1nnc2ccc(N3CCC(c4ccc(OCCN5CCN(C)C(=O)[C@H]5C)cc4)CC3)nn12 [AZD5153] + C[C@@H]1COCCN1C2=NC(=NC(=C2)C3(CC3)[S@](=N)(=O)C)C4=C5C=CNC5=NC=C4 [AZD6738] (first compound max 1 µM, 7x7, partner max 10 µM) | 0.595 | 0.912 | 0.493 | 0.578 | 0.558 | 0.747 | 0.709 | 0.589 | 0.916 | 0.627 | 0.464 | 0.467 | 0.769 | 0.837 | 0.521 | 0.901 | 0.991 | 0.509 | 0.682 | 0.927 |

Reference: the supplement of paper PMC11061612
